According to patent publication US20260116921A1, “PEPTIDE INHIBITORS OF INTERLEUKIN-23 RECEPTOR AND THEIR USE TO TREAT INFLAMMATORY DISEASES” (priority 2018, published 2026):
Like-named read-outs stand apart in the source and are kept apart here. Numbered stars: 1 amine (or outer) side, 2 acyl side, 3 side chain; on linkers, the order of the positions; unused ones are H or OH. Bridge positions count the residues as written; N and C are the ends. Square brackets hold non-standard residues; d marks the D form. Peptide text beside a SMILES is read from it. Trp(7-Me) = Cc1cccc2c(C[C@H](N)C(=O)O)c[nH]c12; Abu(4-yl) = O=C([C@H](CC[*:3])N[*:1])[*:2]; 2Nal = N[C@@H](Cc1ccc2ccccc2c1)C(=O)O; AEF = NCCOc1ccc(C[C@H](N)C(=O)O)cc1; Cit = NC(=O)NCCC[C@H](N)C(=O)O; Pen = CC(C)(S)[C@H](N)C(=O)O; αMeK = C[C@](N)(CCCCN)C(=O)O; Aib = CC(C)(N)C(=O)O; βAla = NCCC(=O)O; Sar = CNCC(=O)O

Target: T1, IL-23R (Homo sapiens, UniProt Q5VWK5)
T1 sequence (Q5VWK5 24-629): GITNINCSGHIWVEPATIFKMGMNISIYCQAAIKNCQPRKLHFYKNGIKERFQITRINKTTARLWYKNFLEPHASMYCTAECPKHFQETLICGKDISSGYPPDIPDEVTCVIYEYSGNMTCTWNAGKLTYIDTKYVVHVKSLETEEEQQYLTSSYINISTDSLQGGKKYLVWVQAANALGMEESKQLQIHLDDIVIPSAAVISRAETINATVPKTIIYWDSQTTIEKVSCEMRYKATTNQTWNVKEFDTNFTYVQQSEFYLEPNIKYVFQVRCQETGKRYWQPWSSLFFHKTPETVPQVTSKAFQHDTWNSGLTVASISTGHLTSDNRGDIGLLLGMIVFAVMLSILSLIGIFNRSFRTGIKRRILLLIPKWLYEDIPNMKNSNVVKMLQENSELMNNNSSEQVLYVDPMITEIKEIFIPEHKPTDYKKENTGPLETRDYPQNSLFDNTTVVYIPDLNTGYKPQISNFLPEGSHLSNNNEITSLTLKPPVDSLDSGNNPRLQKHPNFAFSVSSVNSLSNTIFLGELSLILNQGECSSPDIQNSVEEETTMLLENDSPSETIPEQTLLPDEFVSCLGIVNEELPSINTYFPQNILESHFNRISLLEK
Experiment: DB cells IL23R pSTAT3 cell assay (pStat3 HTRF)
Format: cell-based
From the text: Human ELISA indicates the IL23-IL23R competitive binding assay described below, Rat ELISA indicates the rat IL-23R competitive binding ELISA assay described below, and pStat3HTRF indicates the DB cells IL-23R pSTAT3 cell assay described below. The peptides depicted in Table E1 are cyclized via a disulfide bridge formed between two Pen residues in these peptides. The peptides depicted in Table E2 are cyclized via a thioether bond between the indicated amino acid residues. Table E2 provides an illustrative structure depicting thioether cyclization, which is indicated in the table by the term “cyclo,” with the cyclic region bracketed immediately following the term “cyclo.” For certain peptides, the residue Abu is present where indicated, whereas in other embodiments, e.g., those related to the non-cyclized form, the Abu may be referred to as a hSer(Cl) or homoSer residue.
DB Cells IL23R pSTAT3 Cell Assay
IL-23 plays a central role in supporting and maintaining Th17 differentiation in vivo. This process is thought to be mediated primarily through the Signal Transducer and Activator of Transcription 3 (STAT3), with phosphorylation of STAT3 (to yield pSTAT3) leading to upregulation of RORC and pro-inflammatory IL-17. This cell assay examines the levels of pSTAT3 in IL-23R-expressing DB cells when stimulated with IL-23 in the presence of test compounds. Serial dilutions of test peptides and IL-23 (Humanzyme #HZ-1261) at a final concentration of 0.5 nM, were added to each well in a 96 well tissue culture plate (Corning #CLS3894). DB cells (ATCC #CRL-2289), cultured in RPMI-1640 medium (Thermo Scientific #11875093) supplemented with 10% FBS, were added at 5×10E5 cells/well and incubated for 30 minutes at 37° C. in a 5% CO2 humidified incubator. Changes in phospho-STAT3 levels in the cell lysates were detected using the Cisbio HTRF pSTAT3 (Tyr705) Cellular Assay Kit (Cisbio #62AT3PEH), according to manufacturer's Two Plate Assay protocol.

[1] = Table E3, DB cells, IL-23 0.5 nM, 30 minutes at 37° C., read-out: pStat3 HTRF (IC50)

SMILES | IC50 [1] | IC50
CC(=O)NCCCC[C@H](NC(=O)[C@](C)(CCCCN)NC(=O)[C@H](Cc1ccc2ccccc2c1)NC(=O)[C@H](Cc1ccc(OCCN)cc1)NC(=O)[C@H]1NC(=O)[C@H](CCCNC(N)=O)NC(=O)[C@H](Cc2c[nH]c3c(C)cccc23)NC(=O)[C@H]([C@@H](C)O)NC(=O)[C@H](CC(N)=O)NC(=O)[C@@H](NC(C)=O)C(C)(C)SSC1(C)C)C(=O)N[C@@H](CC(N)=O)C(=O)NC(C)(C)C(=O)NCCC(N)=O [compound 340] (Ac-[Pen]NT[Trp(7-Me)][Cit][Pen][AEF][2Nal][αMeK]K(Ac)N[Aib][βAla]-NH2; disulfide 1-6) | < 1 nM | –
CC(=O)NCCCC[C@H](NC(=O)[C@](C)(CC(C)C)NC(=O)[C@H](Cc1c[nH]c2ccc(O)cc12)NC(=O)[C@H](Cc1ccc(OCCN)cc1)NC(=O)[C@H]1NC(=O)[C@H](CCC(N)=O)NC(=O)[C@H](Cc2c[nH]c3ccccc23)NC(=O)[C@H]([C@@H](C)O)NC(=O)[C@H](CC(N)=O)NC(=O)[C@@H](NC(C)=O)C(C)(C)SSC1(C)C)C(=O)N[C@@H](CC(N)=O)C(=O)N[C@@H](CC(N)=O)C(N)=O [compound 21] | – | > 100 nM
CC(=O)NCCCC[C@H](NC(=O)[C@](C)(CCCCN)NC(=O)[C@H](Cc1ccc2ccccc2c1)NC(=O)[C@H](Cc1ccc(OCCN)cc1)NC(=O)[C@H]1NC(=O)[C@H](CCCNC(N)=O)NC(=O)[C@H](Cc2c[nH]c3c(C)cccc23)NC(=O)[C@H]([C@@H](C)O)NC(=O)[C@H](CC(N)=O)NC(=O)[C@@H](NC(C)=O)C(C)(C)SSC1(C)C)C(=O)N[C@@H](CC(N)=O)C(=O)NC(C)(C)C(=O)N[C@@H](CCCNC(=N)N)C(N)=O [compound 343] (Ac-[Pen]NT[Trp(7-Me)][Cit][Pen][AEF][2Nal][αMeK]K(Ac)N[Aib]R-NH2; disulfide 1-6) | 1 to 10 nM | –
CC(=O)NCCCC[C@@H]1NC(=O)[C@H](Cc2c[nH]c3c(C)cccc23)NC(=O)[C@H]([C@@H](C)O)NC(=O)[C@H](CCC(N)=O)NC(=O)[C@@H](NC(=O)[C@@H](CCCNC(=N)N)NC(C)=O)CCSC[C@@H](C(=O)N[C@@H](Cc2ccc(OCCN)cc2)C(=O)N[C@@H](Cc2ccc3ccccc3c2)C(=O)N[C@@](C)(CCCCN)C(=O)N[C@@H](CCCCNC(C)=O)C(=O)N[C@@H](CC(N)=O)C(=O)N[C@H](CCCCN)C(=O)N(C)CC(N)=O)NC1=O [compound 323] (Ac-[dR][Abu(4-yl)]QT[Trp(7-Me)]K(Ac)C[AEF][2Nal][αMeK]K(Ac)N[dK][Sar]-NH2; thioether 2-7) | 1 to 10 nM | –
COc1ccc2[nH]cc(C[C@H](NC(=O)[C@H](Cc3ccc(OCCN)cc3)NC(=O)[C@H]3NC(=O)[C@H](CCC(N)=O)NC(=O)[C@H](Cc4c[nH]c5ccccc45)NC(=O)[C@H]([C@@H](C)O)NC(=O)[C@H](CC(N)=O)NC(=O)[C@@H](NC(C)=O)C(C)(C)SSC3(C)C)C(=O)N[C@@](C)(CC(C)C)C(=O)N[C@@H](CCCCNC(C)=O)C(=O)N[C@@H](CC(N)=O)C(=O)N[C@@H](CC(N)=O)C(N)=O)c2c1 [compound 20] | – | 10 to 100 nM
CC(=O)NCCCC[C@H](NC(=O)[C@](C)(CC(C)C)NC(=O)[C@H](Cc1ccc2ccccc2c1)NC(=O)[C@H](Cc1ccc(OCCN)cc1)NC(=O)[C@H]1NC(=O)[C@H](CCC(N)=O)NC(=O)[C@H](Cc2c[nH]c3ccc(O)cc23)NC(=O)[C@H]([C@@H](C)O)NC(=O)[C@H](CC(N)=O)NC(=O)[C@@H](NC(C)=O)C(C)(C)SSC1(C)C)C(=O)N[C@@H](CC(N)=O)C(=O)N[C@@H](CC(N)=O)C(N)=O [compound 10] | – | > 100 nM
CC(=O)NCCCC[C@H](NC(=O)[C@](C)(CC(C)C)NC(=O)[C@H](Cc1c[nH]c2c(F)cccc12)NC(=O)[C@H](Cc1ccc(OCCN)cc1)NC(=O)[C@H]1NC(=O)[C@H](CCC(N)=O)NC(=O)[C@H](Cc2c[nH]c3ccccc23)NC(=O)[C@H]([C@@H](C)O)NC(=O)[C@H](CC(N)=O)NC(=O)[C@@H](NC(C)=O)C(C)(C)SSC1(C)C)C(=O)N[C@@H](CC(N)=O)C(=O)N[C@@H](CC(N)=O)C(N)=O [compound 19] | – | 10 to 100 nM
COc1cccc2[nH]cc(C[C@H](NC(=O)[C@H](Cc3ccc(OCCN)cc3)NC(=O)[C@H]3NC(=O)[C@H](CCC(N)=O)NC(=O)[C@H](Cc4c[nH]c5ccccc45)NC(=O)[C@H]([C@@H](C)O)NC(=O)[C@H](CC(N)=O)NC(=O)[C@@H](NC(C)=O)C(C)(C)SSC3(C)C)C(=O)N[C@@](C)(CC(C)C)C(=O)N[C@@H](CCCCNC(C)=O)C(=O)N[C@@H](CC(N)=O)C(=O)N[C@@H](CC(N)=O)C(N)=O)c12 [compound 15] | – | > 100 nM
CC(=O)NCCCC[C@H](NC(=O)[C@](C)(CCCCN)NC(=O)[C@H](Cc1ccc2ccccc2c1)NC(=O)[C@H](Cc1ccc(OCCN)cc1)NC(=O)[C@H]1NC(=O)[C@H](CCC(N)=O)NC(=O)[C@H](Cc2c[nH]c3ccc(C#N)cc23)NC(=O)[C@H]([C@@H](C)O)NC(=O)[C@H](CC(N)=O)NC(=O)[C@@H](NC(C)=O)C(C)(C)SSC1(C)C)C(=O)N[C@@H](CC(N)=O)C(=O)N[C@H](CCCCN)C(N)=O [compound 296] | 1 to 10 nM | –
CC(=O)NCCCC[C@H](NC(=O)[C@](C)(CCCCN)NC(=O)[C@H](Cc1ccc2ccccc2c1)NC(=O)[C@H](Cc1ccc(OCCN)cc1)NC(=O)[C@H]1NC(=O)[C@H](CCCNC(N)=O)NC(=O)[C@H](Cc2c[nH]c3c(C)cccc23)NC(=O)[C@H]([C@@H](C)O)NC(=O)[C@H](CC(N)=O)NC(=O)[C@@H](NC(C)=O)C(C)(C)SSC1(C)C)C(=O)N[C@@H](CC(N)=O)C(=O)NC(C)(C)C(=O)NCC(N)=O [compound 341] (Ac-[Pen]NT[Trp(7-Me)][Cit][Pen][AEF][2Nal][αMeK]K(Ac)N[Aib]G-NH2; disulfide 1-6) | < 1 nM | –
CC(=O)NCCCC[C@H](NC(=O)[C@](C)(CC(C)C)NC(=O)[C@H](Cc1ccc2ccccc2c1)NC(=O)[C@H](Cc1ccc(OCCN)cc1)NC(=O)[C@H]1NC(=O)[C@H](CCC(N)=O)NC(=O)[C@H](Cc2c[nH]c3cc(F)ccc23)NC(=O)[C@H]([C@@H](C)O)NC(=O)[C@H](CC(N)=O)NC(=O)[C@@H](NC(C)=O)C(C)(C)SSC1(C)C)C(=O)N[C@@H](CC(N)=O)C(=O)N[C@@H](CC(N)=O)C(N)=O [compound 3] | – | 10 to 100 nM
COc1ccc2[nH]cc(C[C@@H]3NC(=O)[C@H]([C@@H](C)O)NC(=O)[C@H](CC(N)=O)NC(=O)[C@@H](NC(C)=O)C(C)(C)SSC(C)(C)[C@@H](C(=O)N[C@@H](Cc4ccc(OCCN)cc4)C(=O)N[C@@H](Cc4ccc5ccccc5c4)C(=O)N[C@@](C)(CC(C)C)C(=O)N[C@@H](CCCCNC(C)=O)C(=O)N[C@@H](CC(N)=O)C(=O)N[C@@H](CC(N)=O)C(N)=O)NC(=O)[C@H](CCC(N)=O)NC3=O)c2c1 [compound 9] | – | > 100 nM
CC(=O)N[C@H](CCCNC(=N)N)C(=O)N[C@H]1CCSC[C@@H](C(=O)N[C@@H](Cc2ccc(OCCN)cc2)C(=O)N[C@@H](Cc2ccc3ccccc3c2)C(=O)NC2(C(=O)N[C@@H](CCC(=O)O)C(=O)N[C@@H](CC(N)=O)C(=O)NCCC(N)=O)CCOCC2)NC(=O)[C@H](CCC(N)=O)NC(=O)[C@H](Cc2c[nH]c3c(C)cccc23)NC(=O)[C@H]([C@@H](C)O)NC(=O)[C@H](CCC(N)=O)NC1=O [compound 203] | 1 to 10 nM | –
CC(=O)NCCCC[C@H](NC(=O)[C@](C)(CC(C)C)NC(=O)[C@H](Cc1c[nH]c2ccc(F)cc12)NC(=O)[C@H](Cc1ccc(OCCN)cc1)NC(=O)[C@H]1NC(=O)[C@H](CCC(N)=O)NC(=O)[C@H](Cc2c[nH]c3ccccc23)NC(=O)[C@H]([C@@H](C)O)NC(=O)[C@H](CC(N)=O)NC(=O)[C@@H](NC(C)=O)C(C)(C)SSC1(C)C)C(=O)N[C@@H](CC(N)=O)C(=O)N[C@@H](CC(N)=O)C(N)=O [compound 18] | – | 10 to 100 nM
CC(=O)NCCCC[C@@H]1NC(=O)[C@H](Cc2c[nH]c3c(C)cccc23)NC(=O)[C@H]([C@@H](C)O)NC(=O)[C@H](CC(N)=O)NC(=O)[C@@H](NC(C)=O)C(C)(C)SSC(C)(C)[C@@H](C(=O)N[C@@H](Cc2ccc(OCCN)cc2)C(=O)N[C@@H](Cc2ccc3ccccc3c2)C(=O)N[C@@](C)(CCCCN)C(=O)N[C@@H](CCCCNC(C)=O)C(=O)N[C@@H](CO)C(=O)N[C@H](CCCCN)C(N)=O)NC1=O [compound 352] | – | 1 to 10 nM
